Reference: US20240158446A1, “CYCLIC COMPOUND HAVING SELECTIVE INHIBITORY ACTION ON KRAS OVER HRAS AND NRAS” (CHUGAI SEIYAKU KABUSHIKI KAISHA, priority 2021, published 2024)
Read-outs that look alike come from different tables or passages of the source. *1 amine or outer side, *2 acyl side, *3 side chain or, on linkers, in order; H or OH if unused. Where a SMILES comes first, the peptide text is derived from it. Bridges are numbered along the chain shown (N, C = ends). [ ]: non-standard residue; d: D form. The star is where a group is joined. hPhe(3,5-F2-4-CF3) = N[C@@H](CCc1cc(F)c(C(F)(F)F)c(F)c1)C(=O)O; hPhe(3-Cl-4-CF3) = N[C@@H](CCc1ccc(C(F)(F)F)c(Cl)c1)C(=O)O; NPrPhe(4-CF3) = CCCN[C@@H](Cc1ccc(C(F)(F)F)cc1)C(=O)O; NPrPhe(4-Me) = CCCN[C@@H](Cc1ccc(C)cc1)C(=O)O; NMeGly(cPent) = CN[C@H](C(=O)O)C1CCCC1; X11 = CCC[C@](C)(N[*:1])C(=O)[*:2]; NMeD = CN[C@@H](CC(=O)O)C(=O)O; NMeL = CN[C@@H](CC(C)C)C(=O)O; Morpholide = C1CN(*)CCO1; Ac5c = NC1(C(=O)O)CCCC1; NcPrGly = O=C(O)CNC1CC1; NEtG = CCNCC(=O)O; Sar = CNCC(=O)O

How the values were obtained:
[1] = molecular target: GDP-bound NRAS wild-type protein (Homo sapiens, UniProt P01111); assay: Binding to NRAS by surface plasmon resonance (SPR), Single Cycle Kinetics; details: for NRAS/KRAS (ratio of KD value for NRAS to KD value for KRAS) / NRAS/KRAS (ratio of KD value with respect to NRAS to KD value with respect to KRAS): SPR, GDP-bound NRAS wild-type protein vs GDP-bound KRAS wild-type protein; for NRAS/KRAS (ratio of KD value with respect to GDP-bound NRAS wild-type protein to KD value with respect to KRAS): SPR KD ratio NRAS/KRAS, class symbols
Sequence of GDP-bound NRAS wild-type protein (P01111 whole entry): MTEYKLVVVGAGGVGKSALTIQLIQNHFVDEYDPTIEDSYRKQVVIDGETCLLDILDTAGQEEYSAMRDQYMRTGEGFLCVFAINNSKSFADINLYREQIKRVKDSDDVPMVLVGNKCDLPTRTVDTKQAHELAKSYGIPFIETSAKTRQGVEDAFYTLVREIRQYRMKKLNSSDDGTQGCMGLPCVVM

[2] = molecular target: GDP-bound KRAS wild-type protein (Homo sapiens, UniProt P01116); assay: Binding to KRAS by surface plasmon resonance (SPR), Single Cycle Kinetics; details: GDP-bound KRAS wild-type protein, read-out: KRAS KD
Sequence of GDP-bound KRAS wild-type protein (P01116 whole entry): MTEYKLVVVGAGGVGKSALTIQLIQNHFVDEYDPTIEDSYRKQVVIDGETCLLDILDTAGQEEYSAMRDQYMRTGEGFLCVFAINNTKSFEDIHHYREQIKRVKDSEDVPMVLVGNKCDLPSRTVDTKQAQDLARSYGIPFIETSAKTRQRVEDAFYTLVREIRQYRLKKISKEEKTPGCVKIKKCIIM

[3] = molecular target: GDP-bound HRAS wild-type protein (Homo sapiens, UniProt P01112); assay: Binding to HRAS by surface plasmon resonance (SPR), Single Cycle Kinetics; details: for HRAS/KRAS (ratio of KD value for HRAS to KD value for KRAS) / HRAS/KRAS (ratio of KD value with respect to HRAS to KD value with respect to KRAS): SPR, GDP-bound HRAS wild-type protein vs GDP-bound KRAS wild-type protein; for HRAS/KRAS (ratio of KD value with respect to GDP-bound HRAS wild-type protein to KD value with respect to KRAS): SPR KD ratio HRAS/KRAS, class symbols
Sequence of GDP-bound HRAS wild-type protein (P01112 whole entry): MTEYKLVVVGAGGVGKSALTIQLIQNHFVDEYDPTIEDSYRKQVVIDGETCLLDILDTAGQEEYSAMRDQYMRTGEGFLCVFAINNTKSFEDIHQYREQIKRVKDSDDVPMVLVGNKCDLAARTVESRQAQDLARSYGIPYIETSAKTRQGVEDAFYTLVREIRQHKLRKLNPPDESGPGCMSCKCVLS

[4] = SPR Single Cycle Kinetics, 1:1 binding model

`CC[C@H](C)[C@@H]1NC(=O)[C@H](CC(C)C)N(C)C(=O)C[C@@H](C(=O)N(C)C)N(C)C(=O)[C@H](C2CCCC2)N(C)C(=O)C2(CCCC2)NC(=O)[C@@H]2C[C@H](C)CN2C(=O)[C@H](CCc2cc(F)c(C(F)(F)F)c(F)c2)NC(=O)CN(C)C(=O)[C@H](Cc2ccc(C(F)(F)F)cc2)N2CC/C=C\C[C@@H](C2=O)N(C)C(=O)CN(C)C1=O` [PP2268] was tested, and the “NRAS/KRAS (ratio of KD value for NRAS to KD value for KRAS)” value [1] was “A (a compound having 10 or more and less than 20 is denoted as A)”, the Kd ([2]; SPR, Single Cycle Kinetics) was 0.12 nM and the “HRAS/KRAS (ratio of KD value for HRAS to KD value for KRAS)” value [3] was “A (a compound having 10 or more and less than 20 is denoted as A)”.
In the case of `CCCN1C(=O)CN(CC)C(=O)CN(C)C(=O)[C@H]([C@@H](C)CC)NC(=O)[C@H](CC(C)C)N(C)C(=O)C[C@@H](C(=O)N2CCOCC2)N(C)C(=O)[C@H](C2CCCC2)N(C)C(=O)C2(CCCC2)NC(=O)[C@@H]2CCCN2C(=O)[C@H](CCc2ccc(C(F)(F)F)c(Cl)c2)NC(=O)CN(CC)C(=O)[C@@H]1Cc1ccc(C)cc1` [PP0069] ([NMeL]I[Sar][NEtG][NPrPhe(4-Me)][NEtG][hPhe(3-Cl-4-CF3)]P[Ac5c][NMeGly(cPent)][NMeD]-Morpholide; lactam N-11), the “NRAS/KRAS (ratio of KD value for NRAS to KD value for KRAS)” value [1] is reported as “C (A compound having a KD ratio of 0.1 or more and less than 3 is denoted as C)”, the Kd [2, 4] is reported as 6.9 nM and the “HRAS/KRAS (ratio of KD value for HRAS to KD value for KRAS)” value [3] is reported as “C (A compound having a KD ratio of 0.1 or more and less than 3 is denoted as C)”.
`CCOC[C@H]1C(=O)N[C@@H]([C@@H](C)CC)C(=O)N(C)CC(=O)N(C)[C@H]2C/C=C\CCN(C2=O)[C@@H](Cc2ccc(C(F)(F)F)cc2)C(=O)N(C)CC(=O)N[C@@H](CCc2cc(F)c(C(F)(F)F)c(F)c2)C(=O)N2C[C@@H](C)C[C@H]2C(=O)NC2(CC(C)(C)C2)C(=O)N(C)[C@@H](C2CCCC2)C(=O)N(C)[C@H](C(=O)N(C)CC)CC(=O)N1C` [PP2042] was tested, and the “NRAS/KRAS (ratio of KD value for NRAS to KD value for KRAS)” value [1] was “A (a compound having 10 or more and less than 20 is denoted as A)”, the Kd ([2]; SPR, Single Cycle Kinetics) was 0.14 nM and the “HRAS/KRAS (ratio of KD value for HRAS to KD value for KRAS)” value [3] was “A (a compound having 10 or more and less than 20 is denoted as A)”.
For `CC[C@H](C)[C@@H]1NC(=O)[C@H](CC(C)C)N(C)C(=O)C[C@@H](C(=O)N2CCOCC2)N(CC)C(=O)[C@H](C2CCCC2)N(C)C(=O)C2(CCC2)NC(=O)[C@@H]2[C@H](O)CCN2C(=O)[C@H](CCc2cc(F)c(C(F)(F)F)c(F)c2)NC(=O)CN(C)C(=O)[C@H](Cc2ccc(C(F)(F)F)cc2)N2CCCCC[C@@H](C2=O)N(C)C(=O)CN(C)C1=O` [PP0955], the “NRAS/KRAS (ratio of KD value for NRAS to KD value for KRAS)” value [1] was “A (a compound having 10 or more and less than 20 is denoted as A)”, the Kd ([2]; SPR, Single Cycle Kinetics) was 19 nM and the “HRAS/KRAS (ratio of KD value for HRAS to KD value for KRAS)” value [3] was “A (a compound having 10 or more and less than 20 is denoted as A)”.
For `CCCN1C(=O)CN(C)C(=O)CN(C2CC2)C(=O)[C@H]([C@@H](C)CC)NC(=O)[C@H](CC(C)C)N(C)C(=O)C[C@@H](C(=O)N2CCOCC2)N(C)C(=O)[C@H](C2CCCC2)N(C)C(=O)C2(CCCC2)NC(=O)[C@@H]2CCCN2C(=O)[C@H](CCc2ccc(C(F)(F)F)c(Cl)c2)NC(=O)CN(C)C(=O)[C@@H]1Cc1ccc(C(F)(F)F)cc1` [PP0252] ([NMeL]I[NcPrGly][Sar][NPrPhe(4-CF3)][Sar][hPhe(3-Cl-4-CF3)]P[Ac5c][NMeGly(cPent)][NMeD]-Morpholide; lactam N-11), the “NRAS/KRAS (ratio of KD value for NRAS to KD value for KRAS)” value [1] was “B (a compound having 3 or more and less than 10 is denoted as B)”, the Kd [2, 4] was 0.34 nM and the “HRAS/KRAS (ratio of KD value for HRAS to KD value for KRAS)” value [3] was “B (a compound having 3 or more and less than 10 is denoted as B)”.
`CCCCO[C@@H]1C[C@H]2C(=O)NC3(CCC3)C(=O)N(C)[C@@H](C3CCCC3)C(=O)N(C)[C@H](C(=O)N3CCOCC3)CC(=O)N(C)[C@@H](CC(C)C)C(=O)N[C@@H]([C@@H](C)CC)C(=O)N(C)CC(=O)N(C)[C@H]3CCCCCN(C3=O)[C@@H](Cc3ccc(C(F)(F)F)cc3)C(=O)N(C)CC(=O)N[C@@H](CCc3cc(F)c(C(F)(F)F)c(F)c3)C(=O)N2C1` [PP1004] was tested, and the “NRAS/KRAS (ratio of KD value for NRAS to KD value for KRAS)” value [1] was “B (a compound having 3 or more and less than 10 is denoted as B)”, the Kd ([2]; SPR, Single Cycle Kinetics) was 3.7 nM and the “HRAS/KRAS (ratio of KD value for HRAS to KD value for KRAS)” value [3] was “B (a compound having 3 or more and less than 10 is denoted as B)”.
In the case of `CCO[C@@H]1C[C@H]2C(=O)NC3(CCC3)C(=O)N(C)[C@@H](C3CCCC3)C(=O)N(C)[C@H](C(=O)N(C)C)CC(=O)N(C)[C@@H](CC)C(=O)N[C@@H]([C@@H](C)CC)C(=O)N(C)CC(=O)N(C)[C@H]3CCCCN(C3=O)[C@@H](Cc3ccc(C(F)(F)F)cc3)C(=O)N(C)CC(=O)N[C@@H](CCc3cc(F)c(C(F)(F)F)c(F)c3)C(=O)N2C1` [PP0693], the “NRAS/KRAS (ratio of KD value with respect to NRAS to KD value with respect to KRAS)” value [1] is reported as “C (A compound having a KD ratio of 0.1 or more and less than 3 is denoted as C)”, the Kd [2, 4] is reported as 0.016 nM and the “HRAS/KRAS (ratio of KD value with respect to HRAS to KD value with respect to KRAS)” value [3] is reported as “C (A compound having a KD ratio of 0.1 or more and less than 3 is denoted as C)”.
For `CCC[C@H]1C(=O)N[C@@H]([C@@H](C)CC)C(=O)N(C)CC(=O)N(C)[C@H]2C/C=C\CCN(C2=O)[C@@H](Cc2ccc(C)cc2)C(=O)N(C)CC(=O)N[C@@H](CCc2cc(F)c(C(F)F)c(F)c2)C(=O)N2C[C@H](OCC)C[C@H]2C(=O)NC2(CC(C)(C)C2)C(=O)N(C)[C@@H](C2CCCC2)C(=O)N(C)[C@H](C(=O)N(C)C)CC(=O)N1C` [PP2782], the “NRAS/KRAS (ratio of KD value with respect to GDP-bound NRAS wild-type protein to KD value with respect to KRAS)” value [1] was “A (a compound having 10 or more and less than 20 is denoted as A)”, the Kd [2, 4] was 0.49 nM and the “HRAS/KRAS (ratio of KD value with respect to GDP-bound HRAS wild-type protein to KD value with respect to KRAS)” value [3] was “A (a compound having 10 or more and less than 20 is denoted as A)”.
With `CCC[C@H]1C(=O)N[C@@H]([C@@H](C)CC)C(=O)N(C)CC(=O)N(C)[C@H]2C/C=C\CCN(C2=O)[C@@H](Cc2ccc(C)cc2)C(=O)N(C)CC(=O)N[C@@H](CCc2ccc(CC)c(Cl)c2)C(=O)N2C[C@H](OCC)C[C@H]2C(=O)NC2(CC(C)(C)C2)C(=O)N(C)[C@@H](C2CCCC2)C(=O)N(C)[C@H](C(=O)N(C)C)CC(=O)N1C` [PP2778] the “NRAS/KRAS (ratio of KD value with respect to GDP-bound NRAS wild-type protein to KD value with respect to KRAS)” value [1] was “A (a compound having 10 or more and less than 20 is denoted as A)”, the Kd [2, 4] was 0.62 nM and the “HRAS/KRAS (ratio of KD value with respect to GDP-bound HRAS wild-type protein to KD value with respect to KRAS)” value [3] was “A (a compound having 10 or more and less than 20 is denoted as A)”.
With `CCCN1C(=O)CN(C)C(=O)CN(C)C(=O)[C@H]([C@@H](C)CC)NC(=O)[C@H](CC(C)C)N(C)C(=O)C[C@@H](C(=O)N2CCOCC2)N(C)C(=O)[C@H](C2CCCC2)N(C)C(=O)[C@](C)(CCC)NC(=O)[C@@H]2CCCN2C(=O)[C@H](CCc2cc(F)c(C(F)(F)F)c(F)c2)NC(=O)CN(C)C(=O)[C@@H]1Cc1ccc(C(F)(F)F)cc1` [PP0758] ([NMeL]I[Sar][Sar][NPrPhe(4-CF3)][Sar][hPhe(3,5-F2-4-CF3)]P[X11][NMeGly(cPent)][NMeD]-Morpholide; lactam N-11) the “NRAS/KRAS (ratio of KD value with respect to NRAS to KD value with respect to KRAS)” value [1] was “B (a compound having 3 or more and less than 10 is denoted as B)”, the Kd [2, 4] was 1.6 nM and the “HRAS/KRAS (ratio of KD value with respect to HRAS to KD value with respect to KRAS)” value [3] was “C (A compound having a KD ratio of 0.1 or more and less than 3 is denoted as C)”.
